Source: patent US10894807B2 (Siemens Medical Solutions USA, Inc., priority 2011, dated 2021)
“And” between values parts separate entries of the source, which are not always exact repeats. Equal entries are not always repeated.

Molecular target: human PSMA (Homo sapiens (Human), UniProt Q04609)
Test: Enzymatic assay for in vitro evaluation of PSMA inhibitors (fluorescent assay of PSMA activity, NAAG substrate, OPA detection of glutamate)
Format: biochemical
Conditions: for PSMA Blkg % (10 μM): compound at 10 μM

Sequence of human PSMA (Q04609 whole entry): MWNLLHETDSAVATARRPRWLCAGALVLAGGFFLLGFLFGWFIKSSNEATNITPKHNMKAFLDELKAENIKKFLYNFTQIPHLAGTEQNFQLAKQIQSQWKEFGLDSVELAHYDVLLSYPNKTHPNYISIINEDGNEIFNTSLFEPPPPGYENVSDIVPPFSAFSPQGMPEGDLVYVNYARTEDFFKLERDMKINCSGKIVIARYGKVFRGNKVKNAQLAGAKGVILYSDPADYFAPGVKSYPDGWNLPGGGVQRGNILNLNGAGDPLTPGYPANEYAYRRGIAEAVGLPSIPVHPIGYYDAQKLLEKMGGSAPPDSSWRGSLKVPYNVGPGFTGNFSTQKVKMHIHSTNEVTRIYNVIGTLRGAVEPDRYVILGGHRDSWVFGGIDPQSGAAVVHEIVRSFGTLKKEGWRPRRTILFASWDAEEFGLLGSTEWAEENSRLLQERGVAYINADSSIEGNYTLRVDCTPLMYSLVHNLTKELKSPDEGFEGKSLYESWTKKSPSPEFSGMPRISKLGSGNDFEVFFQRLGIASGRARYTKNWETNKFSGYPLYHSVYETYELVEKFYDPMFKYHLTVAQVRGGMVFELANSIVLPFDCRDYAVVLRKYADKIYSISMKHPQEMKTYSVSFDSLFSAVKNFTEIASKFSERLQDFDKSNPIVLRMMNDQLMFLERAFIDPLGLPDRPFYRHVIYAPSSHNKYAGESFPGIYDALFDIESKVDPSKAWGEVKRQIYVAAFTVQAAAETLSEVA

Compound | Ki | PSMA Blkg % (1.0 μM) | PSMA Blkg % (10 μM)
O=C(O)CC[C@H](NC(=O)N[C@@H](Cc1ccc(NC(=O)CCC(CCC(=O)Nc2ccc(C[C@H](NC(=O)N[C@@H](CCC(=O)O)C(=O)O)C(=O)O)cc2)NC(=O)c2ccc(-n3cc(CCCF)nn3)cc2)cc1)C(=O)O)C(=O)O [P280, (2S,2′S)-2,2′(((((1S,1′S)(((4-(4-(4-(3-Fluoropropyl)-1H-1,2,3-triazol-1-yl)-benzamido)-heptanedioyl)-bis(azanediyl))-bis(4,1-phenylene))-bis(1-carboxyethane-2,1-diyl))-bis(azanediyl))-bis(carbonyl))-bis(azanediyl))-dipentanedioic Acid] | 0.9 nM |  | 
O=C(O)CC[C@H](NC(=O)N[C@@H](CCCCNC(=O)CCC(CCC(=O)NCCCC[C@H](NC(=O)N[C@@H](CCC(=O)O)C(=O)O)C(=O)O)NC(=O)c1ccc(-n2cc(CCCF)nn2)cc1)C(=O)O)C(=O)O [P282, (3S,7S,25S,29S)-16-(4-(4-(3-Fluoropropyl)-1H-1,2,3-triazol-1-yl)benzamido)-5,13,19,27-tetraoxo-4,6,12,20,26,28-hexaazahentriacontane-1,3,7,25,29,31-hexacarboxylic Acid] | 1.1 nM |  | 
O=C(O)CCC(NC(=O)N[C@@H](Cc1ccc(NC(=O)CCC(CCC(=O)Nc2ccc(CC(NC(=O)N[C@@H](CCC(=O)O)C(=O)O)C(=O)O)cc2)(CCC(=O)Nc2ccc(C[C@H](NC(=O)NC(CCC(=O)O)C(=O)O)C(=O)O)cc2)NC(=O)CCCCn2cc(CCCF)nn2)cc1)C(=O)O)C(=O)O (stereo partly drawn) [P285, (2S,2′S)-2,2′-(((((1S,1′S)-(((4-(3-((4-((S)-2-Carboxy-2-(3-((S)-1,3-dicarboxypropyl)ureido)ethyl)phenyl)amino)-3-oxopropyl)-4-(5-(4-(3-fluoropropyl)-1H-1,2,3-triazol-1-yl)pentanamido)heptanedioyl)bis(azanediyl))bis(4,1-phenylene))bis(1-carboxyethane-2,1-diyl))bis(azanediyl))bis(carbonyl))bis(azanediyl))dipentanedioic Acid] | 0.5 nM |  | 
O=C(O)CC[C@H](NC(=O)N[C@@H](CCCCNC(=O)c1cc(C(=O)N2CCN(C(=O)Nc3ccc(C[C@H](NC(=O)N[C@@H](CCC(=O)O)C(=O)O)C(=O)O)cc3)CC2)cc(-n2cc(CCCF)nn2)c1)C(=O)O)C(=O)O [P286, (S)-2-(3-((S)-1-Carboxy-2-(4-(4-(3-(((S)-5-carboxy-5-(3-((S)-1,3-dicarboxypropyl)ureido)pentyl)carbamoyl)-5-(4-(3-fluoropropyl)-1H-1,2,3-triazol-1-yl)benzoyl)piperazine-1-carboxamido)phenyl)ethyl)ureido)pentanedioic Acid] | 12.5 nM | 92% | 
O=C(O)CCC(NC(=O)N[C@@H](CCCCNC(=O)CCC(CCC(=O)NCCCC[C@H](NC(=O)NC(CCC(=O)O)C(=O)O)C(=O)O)(CCC(=O)NCCCC[C@H](NC(=O)NC(CCC(=O)O)C(=O)O)C(=O)O)NC(=O)c1ccc(-n2cc(CCCF)nn2)cc1)C(=O)O)C(=O)O (stereo partly drawn) [P287, (3S,7S,25S,29S)-16-(3-(((S)-5-Carboxy-5-(3-((S)-1,3-dicarboxypropyl)ureido)pentyl)amino)-3-oxopropyl)-16-(4-(4-(3-fluoropropyl)-1H-1,2,3-triazol-1-yl)benzamido)-5,13,19,27-tetraoxo-4,6,12,20,26,28-hexaazahentriacontane-1,3,7,25,29,31-hexacarboxylic Acid] | 1 nM | 95% | 
O=C(O)CC[C@H](NC(=O)NCCCCCNC(=O)c1cc(C(=O)NCCCCCNC(=O)N[C@@H](CCC(=O)O)C(=O)O)cc(-n2cc(CCCF)nn2)c1)C(=O)O [P290, (2S,2′S)-2,2′-((((((5-(4-(3-Fluoropropyl)-1H-1,2,3-triazol-1-yl)isophthaloyl)bis(azanediyl))bis(pentane-5,1-diyl))bis(azanediyl))bis(carbonyl))-bis(azanediyl))dipentanedioic Acid] |  | 0% | 
O=C(O)CC[C@H](NC(=O)[C@H](CC(=O)O)NC(=O)CCCNC(=O)c1cc(C(=O)NCCCC(=O)N[C@@H](CC(=O)O)C(=O)N[C@@H](CCC(=O)O)C(=O)O)cc([N+](=O)[O-])c1)C(=O)O [P293, (2S,2′S)-2,2′-(((2S,2′S)-2,2′-((4,4′-((5-Nitroisophthaloyl)bis(azanediyl))bis(butanoyl))-bis(azanediyl))bis(3-carboxypropanoyl))bis(azanediyl))dipentanedioic Acid] |  | 45% and 90% | 
O=C(O)CC[C@@H](NC(=O)N[C@@H](CCCCNC(=O)OCc1ccccc1)C(=O)O)C(=O)O [P295, (9S,13R)-3,11-Dioxo-1-phenyl-2-oxa-4,10,12-triazapentadecane-9,13,15-tricarboxylic Acid] |  | 45% | 
O=C(O)CC[C@H](NC(=O)C[C@@H](NC(=O)CCCCCNC(=O)c1cc(C(=O)NCCCCCC(=O)N[C@H](CC(=O)N[C@@H](CCC(=O)O)C(=O)O)C(=O)O)cc([N+](=O)[O-])c1)C(=O)O)C(=O)O [P296, (2S,2′S)-2,2′-(((3R,3′R)-3,3′-((6,6′-((5-nitroisophthaloyl)bis(azanediyl))bis(hexanoyl))-bis(azanediyl))bis(3-carboxypropanoyl))bis(azanediyl))dipentanedioic Acid] |  | 72% | 
O=C(O)CC[C@H](NC(=O)C[C@@H](NC(=O)CCCNC(=O)c1cc(C(=O)NCCCC(=O)N[C@H](CC(=O)N[C@@H](CCC(=O)O)C(=O)O)C(=O)O)cc([N+](=O)[O-])c1)C(=O)O)C(=O)O [P298, (2S,2′S)-2,2′-(((3R,3′R)-3,3′-((4,4′-((5-Nitroisophthaloyl)bis(azanediyl))bis(butanoyl))-bis(azanediyl))bis(3-carboxypropanoyl))bis(azanediyl))dipentanedioic Acid] |  | 88% | 
(9S,13S)-9-Carboxy-13-((1-(2-fluoroethyl)-1H-1,2,3-triazol-4-yl)methyl)-3,11-dioxo-1-phenyl-2-oxa-4,10,12-triazatetradecan-14-oic Acid [P187] |  |  | 77%
(S)-2-(3-((S)-1-Carboxy-5-(4-(2-fluoroethoxy)benzamido)pentyl)ureido)pentanedioic Acid [P160] | 219 nM |  | 88%

Continued, values first:

Ki | PSMA Blkg % (1.0 μM) | PSMA Blkg % (10 μM) | Compound
0.9 nM | 98% |  | O=C(O)CC[C@H](NC(=O)N[C@@H](CCCCNC(=O)c1cc(NC(=O)Cn2cc(CCCF)nn2)cc(C(=O)NCCCC[C@H](NC(=O)N[C@@H](CCC(=O)O)C(=O)O)C(=O)O)c1)C(=O)O)C(=O)O [P283, (2S,2′S)-2,2′-(((((1S,1′S)-((5-(2-(4-(3-fluoropropyl)-1H-1,2,3-triazol-1-yl)acetamido)isophthaloyl)bis(azanediyl))bis(1-carboxypentane-5,1-diyl))bis(azanediyl))bis(carbonyl))bis(azanediyl))dipentanedioic Acid]
 | 96% |  | O=C(O)CC[C@H](NC(=O)N[C@@H](CC1CCN(C(=O)c2cc(C(=O)O)cc(-n3cc(CCCF)nn3)c2)CC1)C(=O)O)C(=O)O [P284, (S)-2-(3-((S)-1-Carboxy-2-(1-(3-carboxy-5-(4-(3-fluoropropyl)-1H-1,2,3-triazol-1-yl)benzoyl)piperidin-4-yl)ethyl)ureido)pentanedioic Acid]
9.7 nM | 85% |  | NCCOCCOCCOCCOCc1cn(-c2cc(C(=O)NCCCC[C@H](NC(=O)N[C@@H](CCC(=O)O)C(=O)O)C(=O)O)cc(C(=O)NCCCC[C@H](NC(=O)N[C@@H](CCC(=O)O)C(=O)O)C(=O)O)c2)nn1 [P288, (2S,2′S)-2,2′-(((((1S,1′S)-((5-(4-(13-Amino-2,5,8,11-tetraoxatridecyl)-1H-1,2,3-triazol-1-yl)isophthaloyl)bis(azanediyl))bis(1-carboxypentane-5,1-diyl))bis(azanediyl))bis(carbonyl))-bis(azanediyl))dipentanedioic Acid]
 | 0% |  | [N-]=[N+]=Nc1cc(C(=O)NCCCCCC(=O)N[C@@H](CCC(=O)O)C(=O)O)cc(C(=O)NCCCCCC(=O)N[C@@H](CCC(=O)O)C(=O)O)c1 [P289, (2S,2′S)-2,2′-((6,6′-((5-Azidoisophthaloyl)bis(azanediyl))bis(hexanoyl))-bis(azanediyl))dipentanedioic Acid]
5 nM | 95% |  | O=C(O)CC[C@H](NC(=O)N[C@@H](Cc1ccc(NC(=O)CCC(CCC(=O)Nc2ccc(C[C@H](NC(=O)N[C@@H](CCC(=O)O)C(=O)O)C(=O)O)cc2)(CCC(=O)Nc2ccc(C[C@H](NC(=O)N[C@@H](CCC(=O)O)C(=O)O)C(=O)O)cc2)NC(=O)Cn2cc(CCCF)nn2)cc1)C(=O)O)C(=O)O [P291, (2S,2′S)-2,2′-(((((1S,1′S)-((((4S)-4-(3-((4-((2S)-2-Carboxy-2-(3-(1,3-dicarboxypropyl)-ureido)ethyl)phenyl)amino)-3-oxopropyl)-4-(2-(4-(3-fluoropropyl)-1H-1,2,3-triazol-1-yl)acetamido)heptanedioyl)bis(azanediyl))bis(4,1-phenylene))bis(1-carboxyethane-2,1-diyl))bis(azanediyl))bis(carbonyl))bis(azanediyl))dipentanedioic Acid]
 | 99% |  | NCCOCCOCCOCCOCc1cn(-c2cc(C(=O)Nc3ccc(C[C@H](NC(=O)N[C@@H](CCC(=O)O)C(=O)O)C(=O)O)cc3)cc(C(=O)Nc3ccc(C[C@H](NC(=O)N[C@@H](CCC(=O)O)C(=O)O)C(=O)O)cc3)c2)nn1 [P294, (2S,2′S)-2,2′-(((((1S,1′S)-(((5-(4-(13-Amino-2,5,8,11-tetraoxatridecyl)-1H-1,2,3-triazol-1-yl)isophthaloyl)bis(azanediyl))bis(4,1-phenylene))bis(1-carboxyethane-2,1-diyl))-bis(azanediyl))bis(carbonyl))bis(azanediyl))dipentanedioic Acid]
 | 31% |  | O=C(O)CC[C@@H](NC(=O)N[C@@H](CCCCNC(=O)c1cc(C(=O)NCCCC[C@H](NC(=O)N[C@H](CCC(=O)O)C(=O)O)C(=O)O)cc(-n2cc(CCCF)nn2)c1)C(=O)O)C(=O)O [P297, (2R,2′R)-2,2′-(((((1S,1′S)-((5-(4-(3-Fluoropropyl)-1H-1,2,3-triazol-1-yl)isophthaloyl)-bis(azanediyl))bis(1-carboxypentane-5,1-diyl))bis(azanediyl))bis(carbonyl))-bis(azanediyl))dipentanedioic Acid]
